Measured values reported in US20170281566A1, “COMBINATIONS OF LSD1 INHIBITORS FOR THE TREATMENT OF HEMATOLOGICAL MALIGNANCIES” (HOFFMANN-LA ROCHE INC., priority 2016, published 2017).

Tests used:
Assay type in all cases: cell-based
KASUMI-1 cells = assay: Viability assay (96 hours), Alamar Blue, single agent
Method: (§1) AML cell lines were maintained in RPMI 10% FBS medium at 37° C. in a humidified incubator with controlled 5% CO2 atmosphere. Cell freezing and thawing was performed following recommendation from ATCC. Genetic profiling of the cell lines used is available in table 2. […] Three wells were reserved for each experimental condition; medium-only and vehicle-treated controls were also added for background correction and normalization respectively. […] Alamar Blue® is a cell viability indicator that uses the natural reducing power of living cells to convert resazurin to the fluorescent molecule, resorufin^43.

OCI-AML3 cells = assay: as above
Method: as §1

THP-1 cells = assay: as above
Method: as §1

MV(4;11) cells = assay: as above
Method: as §1

MOLM-13 cells = assay: as above
Method: as §1

OCI-AML2 cells = assay: as above; details: Homo sapiens, OCI-AML2, 96 h, read-out: EC50 (viability)
Method: as §1

HL-60 cells = assay: as above
Method: as §1

MOLT4 cells = assay: Viability assay (10 days), Alamar Blue, single agent
Method: MOLT4 cells were maintained in RPMI 10% FBS medium at 37° C. in a humidified incubator with controlled 5% CO2 atmosphere. Cell freezing and thawing was performed following recommendation from ATCC. Genetic profiling of the cell lines used is available in table 4.
2.1.2 Viability Assays (10 Days)
Three wells were reserved for each experimental condition; medium-only and vehicle-treated controls were also added for background correction and normalization respectively. After seeding, 50 μL of medium containing 8 1:3 serial dilution of ORY-1001 were added to the cells (range 0.015-100 nM). Cells were then incubated for 6 days at 37° C. in a controlled 5% CO2 atmosphere. On the sixth day, 1004, of medium with serial dilutions of ORY-1001 (as described previously) or vehicle were added to the cells. Medium without compound (100μ) was added to background control.
After 4 additional days of incubation, cell viability was evaluated using the Alamar Blue® staining as detailed in the section 1.1.2.

Compound | EC50 (KASUMI-1 cells; Homo sapiens, Kasumi 1, 96 h, read-out: EC50 (viability)) [µM] | EC50 (OCI-AML3 cells; Homo sapiens, OCI-AML-3, 96 h, read-out: EC50 (viability)) [µM] | EC50 (THP-1 cells; Homo sapiens, THP-1, 96 h, read-out: EC50 (viability)) [µM] | EC50 (MV(4;11) cells; Homo sapiens, MV4-11, 96 h, read-out: EC50 (viability)) [µM] | EC50 (MOLM-13 cells; Homo sapiens, MOLM-13, 96 h, read-out: EC50 (viability)) [µM] | EC50 (OCI-AML2 cells) [µM] | EC50 (HL-60 cells; Homo sapiens, HL-60, 96 h, read-out: EC50 (viability)) [µM] | EC50 (viability) (MOLT4 cells; MOLT4, 10 days of treatment, single agent) | Effect on viability of MOLT-4 cells (MOLT4 cells; shorter treatment (96 hours), data not shown) | EC50 (viability) (KASUMI-1 cells; KASUMI-1, 96 hours, single agent) | EC50 (viability) (OCI-AML3 cells; OCI-AML3, 96 hours, single agent) | EC50 (viability) (THP-1 cells; THP-1, 96 hours, single agent) | EC50 (viability) (MV(4;11) cells; MV(4;11), 96 hours, single agent) | EC50 (viability) (MOLM-13 cells; MOLM-13, 96 hours, single agent) | EC50 (viability) (HL-60 cells; HL-60, 96 hours, single agent)
O=C(CCCCCCNC(=O)c1cnc(N(c2ccccc2)c2ccccc2)nc1)NO [Rocilinostat, Ricolinostat, reference compound] | 0.5 to 3 | 0.5 to 3 | 0.5 to 3 | 0.5 to 3 | 0.5 to 3 | 0.5 to 3 | 0.5 to 3 | – | – | – | – | – | – | – | –
N[C@H]1CC[C@H](N[C@@H]2C[C@H]2c2ccccc2)CC1 [ORY-1001, (trans)-N1-((1R,2S)-2-phenylcyclopropyl)cyclohexane-1,4-diamine] | – | – | – | – | – | – | – | sub-nanomolar | not affecting the viability | sub-nanomolar | sub-nanomolar | sub-nanomolar | sub-nanomolar | sub-nanomolar | sub-nanomolar
